Assay results published in US8044057B2, “Methods for suppressing an immune response or treating a proliferative disorder” (The United States of America as represented by the …, priority 2003, dated 2011).

Legend:
[1] = molecular target: T1, recombinant CK2 (Homo sapiens, UniProt P68400); assay: Casein kinase 2 activity kit, 32P incorporation into substrate peptide; format: biochemical
T1 construct: purchased Upstate Biotechnology 17-132 (number of the activity kit, not of the enzyme)
Description: FIGS. 5A-5B are bar graphs showing that LY303511 inhibits the cell cycle by causing combined G1 and G2/M arrest and that LY303511 inhibits CK2 activity. For the data shown in FIG. 5A, PASM cells were cultured in medium with FBS for 48 hours before the addition of 0-100 μM LY303511 without or with raparnycin, 400 ng/ml, for 24 hours. Cells were then harvested and incubated with propidium iodide for 2 hours before counting using a Becton-Dickson FACSCalibur. Data are the means (±SEM) of percentages of cells in G1, S, or G2/M phase of the cell cycle in three experiments with duplicate assays. *p<0.05 vs. DMSO control, or †p<0.05 vs. 10 μM LY303511, by Student's t—test. FIG. 5B is a bar graph showing that LY303511 or LY294002 inhibits CK2 in vitro. As per the manufacturer (Upstate Biotechnologies), 0 or 100 ng of recombinant CK2 were incubated with CK2 substrate peptide and ^32P-γ-ATP for 10 min with 1% DMSO or inhibitors as indicated. Data are the means of values for samples with inhibitors expressed as percentage of that for control, which was (mean±SEM) 0.2±0.03 pmol phosphate/100 ng protein/10 min. Data are from three experiments performed in duplicate. *p<0.05 by Student's t-test when compared to DMSO control.
One specific assay for casein kinase 2 activity is available commercially as a kit from Upstate Biotechnology (New York). The assay is based on phosphorylation of a specific substrate (CK-2 substrate peptide) using the transfer of the gamma-phosphate of ^32P-ATP by casein kinase 2 during a 10 minute incubation at 30° C. The phosphorylated substrate is then separated from the residual ^32P-ATP using P81 phosphocellulose paper, and quantified by scintillation counting.
Casein kinase 2 (CK2) activity (counts per rninute) was measured using a casein kinase 2 activity kit (Upstate Biotechnology catalogue number 17-132) by incubating recombinant 100 ng CK2, magnesium/ATP cocktail (10 mcCi ^32P-garnma-ATP, 0.675 micromoles MgCl2, 4.5 nmoles ATP), and 10 micromoles peptide substrate (arnino acid sequence RRRDDDSDDD (SEQ ID NO: 1) in 50 mcl assay buffer without or with the indicated concentrations of DMSO (1%), LY294002, LY303511, or rapamycin for 10 minutes at 30° C. Assays were stopped with 20 mcl of 40% trichloroacetic acid, and 25 mcl were spotted on P81 phosphocellulose paper squares before washing 3 times with 0.75% phosphoric acid, and once with acetone. 32P incorporation on the substrate peptide was detected by counting the phosphocellulose squares in 5 ml scintillation fluid using a Packard 100 Tri-Carb liquid scintillation counter.
Measurement of casein kinase 2 (CK2) activity: CK2 activity (counts per minute) was measured using a CK2 activity kit (Upstate, Charlottesville, Va.) by incubating 100 ng of recombinant CK2, rnagnesium/ATP cocktail (10 μCi ^32P-gamma-ATP, 0.675 μmol MgCl2, 4.5 nmol ATP), and 10 μmol peptide substrate (amino acid sequence RRRDDDSDDD) in 50 μl assay buffer (20 mM MOPS, pH 7.2, 5 mM EGTA, 25 mM β-glycerol phosphate, 1 mM sodium orthovanadate, 1 mM dithiothreitol) without or with the indicated concentrations of LY294002, LY303511, wortmannin or rapamycin in 1% DMSO for 10 min at 30° C. Assays were stopped with 20 μl of 40% trichloroacetic acid, and samples (25 μl) of supernatant were applied to P81 phosphocellulose paper squares, which were then washed three times with 0.75% phosphoric acid, and once with acetone. ^32P in the substrate peptide was quantified using a Packard 100 Tri-Carb liquid scintillation counter on phosphocellulose squares in 5 ml of scintillation fluid. Activity is expressed as pmol phosphate incorporated per 10 minutes. CK2 activity measured in the presence of inhibitors was divided by that measured for the DMSO control (=100% control).

[2] = tested on: A549 cells; assay: Microarray gene expression analysis in A549 cells; format: cell-based, human; details: inhibitor 1 hour before L/I for 6 hours
Description: Microarray gene expression analyses have been performed in which A549 cells were incubated without or with LY294002 or wortmannin for 1 hour before the addition of L/I for 6 hours. […] The mRNAs of other kinases that were increased by LY294002 included that encoding CK2α′ (1.8-fold; GenBank accession #M55268). Since CK2 can regulate both G1 and G2/M cell cycle transitions, the effects of LY294002 and LY303511 on CK2 activity were assessed.

T1 sequence (P68400 whole entry): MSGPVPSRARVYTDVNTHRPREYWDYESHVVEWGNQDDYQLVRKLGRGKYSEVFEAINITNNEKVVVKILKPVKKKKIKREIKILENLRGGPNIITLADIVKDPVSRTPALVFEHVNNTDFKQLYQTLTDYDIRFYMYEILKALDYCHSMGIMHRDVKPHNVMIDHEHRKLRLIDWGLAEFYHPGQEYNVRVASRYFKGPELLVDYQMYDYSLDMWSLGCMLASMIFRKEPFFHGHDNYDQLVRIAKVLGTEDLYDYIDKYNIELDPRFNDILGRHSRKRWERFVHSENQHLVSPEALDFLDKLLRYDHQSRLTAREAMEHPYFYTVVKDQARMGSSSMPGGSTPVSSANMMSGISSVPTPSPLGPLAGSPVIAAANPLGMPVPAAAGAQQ
T1 sequence (P67870 2-215 partner limits assumed): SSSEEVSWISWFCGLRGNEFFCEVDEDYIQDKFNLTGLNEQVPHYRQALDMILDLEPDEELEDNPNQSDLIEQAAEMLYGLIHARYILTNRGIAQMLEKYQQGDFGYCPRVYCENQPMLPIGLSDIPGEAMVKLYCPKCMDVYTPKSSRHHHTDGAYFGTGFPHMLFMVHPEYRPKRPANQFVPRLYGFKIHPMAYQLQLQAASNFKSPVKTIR

CK2 IC50 relative to that for LY303511 ([1]; recombinant CK2 in vitro): one tenth
IC50 ([1]; recombinant CK2 in vitro, read-out: approximate IC50 for CK2): ~10 µM
Structure (SMILES): O=c1cc(N2CCOCC2)oc2c(-c3ccccc3)cccc12 [LY294002, 2-(4-morpholinyl)-8-phenyl-4H-1-benzopyran-4-one, reference compound]
CK2 activity ([1]; 100 ng recombinant CK2, 10 min at 30° C.): concentration-dependent inhibition of CK2 activity
levels of mTOR mRNA [2]: 1.7 fold
mRNA encoding CK2α′ [2]: 1.8 fold
